One may read the inhibition as the relative decrease from the control value, in per cent. In general, IC50 refers to the concentration needed to halve the response being measured.

Activity calls are given as the source filed them. The calls are words filed in the database; no cut-off is given here. A value given as a limit tells only on which side of the number the result lay.

Common to all, as to assay type: cell-based
Assay [1] concerns the target T1, Small conductance calcium-activated potassium channel protein 3 (Homo sapiens, UniProt Q9UGI6). Nature of the assay: Inhibition of Kca2.3 channel expressed in HEK293 cells at 30 uM by thallium flux assay.
The target in assay [2] is T1, Small conductance calcium-activated potassium channel protein 3. Nature of the assay: Inhibition of Kca2.3 channel expressed in HEK293 cells by thallium flux assay.
Assay [3] shares this target. Nature of the assay: Inhibition of Kca2.3 channel expressed in HEK293 cells by electrophysiology assay.
In assay [4] the target is Small conductance calcium-activated potassium channel protein 1 (Homo sapiens, UniProt Q92952). Put plainly: Inhibition of Kca2.1 channel expressed in HEK293 cells by thallium flux assay.
For assay [5], the target named is Small conductance calcium-activated potassium channel protein 2 (Homo sapiens, UniProt Q9H2S1). Nature of the assay: Inhibition of Kca2.2 channel expressed in HEK293 cells by thallium flux assay.
Assay [6] has as its target T1, Small conductance calcium-activated potassium channel protein 3. Put plainly: Displacement of [125I]apamin from Kca2.3 channel expressed in HEK293 cells by scintillation proximity assay.

T1 sequence (Q9UGI6 whole entry): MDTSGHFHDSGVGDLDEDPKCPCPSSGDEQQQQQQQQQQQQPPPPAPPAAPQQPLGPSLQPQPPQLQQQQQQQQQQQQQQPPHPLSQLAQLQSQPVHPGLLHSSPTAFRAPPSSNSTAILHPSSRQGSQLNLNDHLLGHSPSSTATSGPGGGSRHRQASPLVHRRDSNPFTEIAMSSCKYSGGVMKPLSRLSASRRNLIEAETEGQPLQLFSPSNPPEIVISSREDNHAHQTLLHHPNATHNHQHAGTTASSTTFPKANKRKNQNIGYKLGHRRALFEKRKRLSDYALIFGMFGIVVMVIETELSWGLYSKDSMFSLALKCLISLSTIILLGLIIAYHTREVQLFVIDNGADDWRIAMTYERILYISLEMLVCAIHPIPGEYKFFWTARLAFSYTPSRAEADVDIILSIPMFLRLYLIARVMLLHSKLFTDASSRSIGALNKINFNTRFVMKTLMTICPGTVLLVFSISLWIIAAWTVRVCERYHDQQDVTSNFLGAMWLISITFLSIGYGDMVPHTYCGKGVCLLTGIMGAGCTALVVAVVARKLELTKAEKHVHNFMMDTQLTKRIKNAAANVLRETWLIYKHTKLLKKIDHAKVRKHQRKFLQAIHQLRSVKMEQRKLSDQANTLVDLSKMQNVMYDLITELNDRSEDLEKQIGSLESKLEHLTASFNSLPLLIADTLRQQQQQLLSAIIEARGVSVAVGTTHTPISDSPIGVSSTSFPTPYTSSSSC
Chain of Small conductance calcium-activated potassium channel protein 2 (Q9H2S1 whole entry): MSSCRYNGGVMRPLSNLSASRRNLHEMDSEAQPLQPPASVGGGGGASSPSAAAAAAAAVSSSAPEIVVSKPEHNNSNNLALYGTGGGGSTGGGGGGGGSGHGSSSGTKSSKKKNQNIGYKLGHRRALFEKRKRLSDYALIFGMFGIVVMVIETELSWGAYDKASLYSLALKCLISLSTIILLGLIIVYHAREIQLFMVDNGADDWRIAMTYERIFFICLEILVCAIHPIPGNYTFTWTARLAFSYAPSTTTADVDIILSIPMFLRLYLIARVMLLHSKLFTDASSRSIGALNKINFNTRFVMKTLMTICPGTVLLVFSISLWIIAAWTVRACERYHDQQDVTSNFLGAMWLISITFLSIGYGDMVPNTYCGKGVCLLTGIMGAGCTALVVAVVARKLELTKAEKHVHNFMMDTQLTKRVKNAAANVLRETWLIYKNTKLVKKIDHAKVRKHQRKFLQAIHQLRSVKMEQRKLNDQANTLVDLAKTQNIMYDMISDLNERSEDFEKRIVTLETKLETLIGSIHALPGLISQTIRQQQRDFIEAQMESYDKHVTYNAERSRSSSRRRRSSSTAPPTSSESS
Chain of Small conductance calcium-activated potassium channel protein 1 (Q92952 whole entry): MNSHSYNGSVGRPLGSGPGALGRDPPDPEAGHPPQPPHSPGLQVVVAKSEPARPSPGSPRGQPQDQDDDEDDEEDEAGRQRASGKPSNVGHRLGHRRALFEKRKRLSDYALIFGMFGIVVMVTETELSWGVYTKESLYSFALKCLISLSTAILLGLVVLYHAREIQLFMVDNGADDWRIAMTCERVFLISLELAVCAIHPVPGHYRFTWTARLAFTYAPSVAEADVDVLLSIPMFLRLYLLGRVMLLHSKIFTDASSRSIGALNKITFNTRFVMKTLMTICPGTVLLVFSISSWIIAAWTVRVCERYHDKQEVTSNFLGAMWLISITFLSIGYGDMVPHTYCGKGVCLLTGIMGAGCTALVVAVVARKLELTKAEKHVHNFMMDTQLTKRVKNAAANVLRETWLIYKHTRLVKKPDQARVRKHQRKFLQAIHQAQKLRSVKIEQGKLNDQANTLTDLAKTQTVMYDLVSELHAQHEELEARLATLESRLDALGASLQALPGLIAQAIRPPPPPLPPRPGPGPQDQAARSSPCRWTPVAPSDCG

As for `Clc1cccc(CNc2cc(Cl)nc3ccnn23)c1`, in assay [1], the inhibition was 113%. The half-inhibitory concentration (IC50) in assay [2] worked out at 5.2 µM.
Taken in the same sequence, the figures for `Clc1cc(NCc2ccc(Oc3ccccc3)cc2)n2nccc2n1` were 23% and greater than 30 µM.
Taken in the same sequence, the figures for `Cc1cccc(CNc2cc(Cl)nc3ccnn23)c1` were 91% and 10.7 µM.
For `FC(F)(F)Oc1ccc(CNc2cc(Cl)nc3ccnn23)cc1` the same measures were 62% and 15.4 µM.
For `C[C@H](Nc1cc(Cl)nc2ccnn12)c1ccccc1`, the result in assay [2] was inactive.
In the case of `FC(F)(F)c1ccccc1CNc1cc(Cl)nc2ccnn12`, in assay [1], the inhibition came out at 50%. The IC50 in assay [2] is greater than 30 µM.
Taken in the same sequence, the figures for `FC(F)(F)Oc1ccccc1CNc1cc(Cl)nc2ccnn12` were 87% and 10 µM.
Turning to `Clc1cc(NCc2ccncc2)n2nccc2n1`, in assay [2], the outcome was inactive.
Turning to `FC(F)(F)Oc1cccc(CNc2cc(Cl)nc3ccnn23)c1`, the inhibition in assay [1] came out at 71%. Moreover, the concentration for half-maximal inhibition (IC50) in assay [2] was 11 µM.
As for `C[C@@H](Nc1cc(Cl)nc2ccnn12)c1ccccc1`, the IC50 in assay [2] was found to be 1 µM.
For the compound `Clc1cc(NCc2ccc(Cl)c(Cl)c2)n2nccc2n1`, the inhibition in assay [1] turned out to be 25%. Also, the IC50 in assay [2] was greater than 30 µM.
Taken in the same sequence, the figures for `Clc1cc(NCc2ccccc2Cl)n2nccc2n1` were 62% and 19.1 µM.
For `FC(F)(F)c1ccc(CNc2cc(Cl)nc3ccnn23)cc1` the same measures were 43% and greater than 30 µM.
As for `Clc1cc(NCc2ccccc2)n2nccc2n1`, the inhibition in assay [1] was 113%. Besides, the IC50 stood at 1.1 µM in assay [2], 1.6 µM in assay [3], 1.19 µM in assay [4] and 1.1 µM in assay [5].
As to `FC(F)(F)c1cccc(CNc2cc(Cl)nc3ccnn23)c1`, the inhibition in assay [1] worked out at 80%. The IC50 in assay [2] worked out at 14.6 µM.
For `COc1ccccc1CNc1cc(Cl)nc2ccnn12` the same measures were 74% and 15.9 µM.
For `Clc1ccc(CNc2cc(Cl)nc3ccnn23)cc1`, in assay [1], the inhibition was 30%. Besides, the concentration for half-maximal inhibition (IC50) in assay [2] is greater than 30 µM.
Taken in the same sequence, the figures for `Cc1ccccc1CNc1cc(Cl)nc2ccnn12` were 75% and 14.6 µM.
Consider `Clc1cc(NCc2cccs2)n2nccc2n1`, for which, in assay [1], the inhibition is 105%. The IC50 in assay [2] came to 0.35 µM; in assay [3] it was 0.58 µM; in assay [4], 0.3 µM; in assay [5], 0.53 µM. Also, in assay [6], the outcome was inactive.
As for `O=[N+]([O-])c1ccc(CNc2cc(Cl)nc3ccnn23)cc1`, the inhibition in assay [1] turned out to be 25%. Further, the 50% inhibitory concentration (IC50) in assay [2] was greater than 30 µM.
For the compound `O=[N+]([O-])c1cccc(CNc2cc(Cl)nc3ccnn23)c1`, the inhibition in assay [1] was found to be 96%. Besides, the 50% inhibitory concentration (IC50) in assay [2] worked out at 7.9 µM.
Take `Clc1cc(NC(Cc2ccccc2)c2ccccc2)n2nccc2n1` (stereo unspecified): the IC50 in assay [2] worked out at 7.5 µM.
For the compound `Cc1ccc(CNc2cc(Cl)nc3ccnn23)cc1`, the inhibition in assay [1] was 46%. For the same compound, the IC50 in assay [2] is greater than 30 µM.
`Clc1cc(Cl)cc(CNc2cc(Cl)nc3ccnn23)c1`: the inhibition in assay [1] amounted to 43%. Also, the half-maximal inhibitory concentration (IC50) in assay [2] is greater than 30 µM.
